We go through five compounds from patent US20030224978A1, “Compounds and methods for modulating apoptosis” (McGill University, priority 1996, published 2003).

Data set [1] relates to angiogenesis in chick embryonic chorioallantoic membranes. Kind of data set: Chick chorioallantoic membrane angiogenesis assay. In kind it is in vivo. The following applies: for inhibition of angiogenesis, in words: 3, 17, and 33 μg/mesh; for percent inhibition of angiogenesis: 24 hours. The method, then:
The chick chorioallantoic membrane assay was used to assess the effects of cyclic peptides on angiogenesis (Iruela-Arispe et al., Molecular Biology of the Cell 6:327-343, 1995). Cyclic peptides were embedded in a mesh composed of vitrogen at concentrations of 3, 17, and 33 μg/mesh. The meshes were then applied to 12-day-old chick embryonic chorioallantoic membranes. After 24 hours, the effects of the peptides on angiogenesis were assessed by computer assisted morphometric analysis.
For each concentration of cyclic peptide, the percent inhibition of angiogenesis (relative to the level of angiogenesis in the absence of cyclic peptide) is provided. Assays were performed in the presence (+) or absence (−) of […] VEGF. For example, the cyclic peptide N-Ac-CHAVC-NH2 (SEQ ID NO:10) inhibited angiogenesis by 46%, 51%, and 51% at concentrations of 3, 17, and 33 μg/mesh, respectively.

The nature of data set [2]: in vitro. The class given is cell-based. The following applies: human. An outline of the steps: (§1)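 Cytotoxicity assessed by MTT assay and proliferation by ³H-thymidine incorporation, with peptides tested at concentrations up to 100 μM.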
Data set [3] can be described thus: in vitro. The class given is cell-based. The following applies: human. An outline of the steps: as §1
The source holds these as a separate data set.

Data set [4] in a line: in vitro. The following applies: human. The class given is cell-based. An outline of the steps: as §1
This is another data set of the same source.

The next data set concerns the target T1, chick N-cadherin (Gallus gallus, UniProt P10288).
T1 construct: expressed in transfected cells; host or cells: 3T3 fibroblasts
T1 sequence (P10288 165-912): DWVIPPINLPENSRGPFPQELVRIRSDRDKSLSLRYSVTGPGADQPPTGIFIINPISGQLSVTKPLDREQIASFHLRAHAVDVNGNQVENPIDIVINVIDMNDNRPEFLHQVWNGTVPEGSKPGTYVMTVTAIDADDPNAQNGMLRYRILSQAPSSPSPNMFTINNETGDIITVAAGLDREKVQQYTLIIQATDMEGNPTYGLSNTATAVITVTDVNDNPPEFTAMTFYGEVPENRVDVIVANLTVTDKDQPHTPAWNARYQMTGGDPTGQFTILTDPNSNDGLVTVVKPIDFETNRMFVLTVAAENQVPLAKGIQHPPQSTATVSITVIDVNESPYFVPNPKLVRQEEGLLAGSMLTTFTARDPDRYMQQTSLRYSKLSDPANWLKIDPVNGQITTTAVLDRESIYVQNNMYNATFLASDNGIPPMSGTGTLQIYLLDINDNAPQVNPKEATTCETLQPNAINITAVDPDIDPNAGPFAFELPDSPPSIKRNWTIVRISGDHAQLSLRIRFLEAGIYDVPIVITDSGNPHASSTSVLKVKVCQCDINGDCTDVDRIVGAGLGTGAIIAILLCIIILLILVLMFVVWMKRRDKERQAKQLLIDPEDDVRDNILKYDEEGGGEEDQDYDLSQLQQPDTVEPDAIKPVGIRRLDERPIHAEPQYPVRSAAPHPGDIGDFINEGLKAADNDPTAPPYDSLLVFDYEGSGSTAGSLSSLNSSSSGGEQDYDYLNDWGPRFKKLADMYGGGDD
The data set can be described thus: N-cadherin dependent neurite outgrowth of rat cerebellar neurons on N-cadherin expressing 3T3 cells (Example 14). Particulars: for inhibitory activity on N-cadherin dependent neurite outgrowth, in words: Tables 8 and 9, 250 or 125 μg/mL. In kind it is cell-based.

The nature of data set [5]: in vitro. The class given is cell-based. The following applies: human. An outline of the steps:
as §1
This is another data set of the same source.

“Also recorded” adds a separate entry of the source. Positions of bridges follow the written chain, without caps; N, C: chain ends. Residues, ends and D or L forms follow the SMILES beside them.

Consider `CC[C@H](C)[C@@H]1NC(=O)[C@H](CC(=O)O)NC(=O)[C@H](C(C)C)NC(=O)[C@H](C)NC(=O)[C@H](Cc2c[nH]cn2)NC(=O)[C@H](C)NC(=O)[C@@H](NC(C)=O)CSSC[C@@H](C(N)=O)NC1=O` (Ac-CAHAVDIC-NH2; disulfide 1-8), for which the “inhibition of angiogenesis, in words” value in data set [1] is “inhibited angiogenesis significantly”. For the same compound, the IC50 in the data set “in vitro [2]”, in “in vitro [3]”, in the data set “in vitro [4]” and in “in vitro [5]” was greater than 100 µM each time. Further, the inhibition at 250 µg/mL against chick N-cadherin (NIH3T3, 250 μg/mL, 16-18 hours) worked out at 89.4%. Besides, the “inhibitory activity on N-cadherin dependent neurite outgrowth, in words” value against chick N-cadherin was “reduced, but did not eliminate, the activity; also recorded: potent inhibitors of neurite outgrowth”. Besides, the “activity on N-cadherin dependent neurite outgrowth at lower concentration, in words” value at chick N-cadherin (concentrations of 125 µg/mL or below) is recorded as “lost activity”.
Regarding `CC(=O)N[C@H]1CSSC[C@@H](C(N)=O)NC(=O)[C@H](CC(=O)O)NC(=O)[C@H](C(C)C)NC(=O)[C@H](C)NC(=O)[C@H](Cc2c[nH]cn2)NC(=O)[C@H](C)NC1=O` [N-Ac-CAHAVDC-NH2, N-Ac-Cys-Ala-His-Ala-Val-Asp-Cys-NH2] (Ac-CAHAVDC-NH2; disulfide 1-7), in data set [1], the “inhibition of angiogenesis, in words” value is reported as “inhibited angiogenesis significantly”. The IC50 in “in vitro [2]”, in “in vitro [3]”, in the data set “in vitro [4]” and in “in vitro [5]” was greater than 100 µM each time. The inhibition at 250 µg/mL against chick N-cadherin (NIH3T3, 250 μg/mL, 16-18 hours) is 13.3 ± 8.3%. Further, the “inhibitory activity on N-cadherin dependent neurite outgrowth, in words” value at chick N-cadherin was “completely eliminated inhibitory activity”.
Consider `CC(=O)N[C@H]1CSSC[C@@H](C(N)=O)NC(=O)[C@H](C(C)C)NC(=O)[C@H](C)NC(=O)[C@H](Cc2c[nH]cn2)NC1=O` [N-Ac-CHAVC-NH2, N-Ac-Cys-His-Ala-Val-Cys-NH2], for which, at chick N-cadherin (250 μg/mL, 16-18 hours), the “% Inhibition of N-cadherin dependent neurite outgrowth” value was 68.2 ± 5.1 (4) %. Moreover, the inhibition at 125 µg/mL on chick N-cadherin (NIH3T3, 125 μg/mL, 16-18 hours) was found to be 33.2%. Also, at chick N-cadherin (NIH3T3, 250 μg/mL, 16-18 hours), the inhibition at 250 µg/mL was 68.2%. For the same compound, the “effect on the N-cadherin response, in words” value at chick N-cadherin (concentrations up to 62 μg/ml) is given as “no significant effect on the N-cadherin response”. This compound also showed an EC50 at chick N-cadherin (from dose-response curve) of 220 µM.
With `CC(=O)N[C@H]1CSSC[C@@H](C(N)=O)NC(=O)[C@H](CO)NC(=O)[C@H](C(C)C)NC(=O)[C@H](C)NC(=O)[C@H](Cc2c[nH]cn2)NC1=O` [N-Ac-CHAVSC-NH2, N-Ac-Cys-His-Ala-Val-Ser-Cys-NH2] (Ac-CHAVSC-NH2; disulfide 1-6), the “percent inhibition of angiogenesis” value in data set [1] (3 μg/mesh, absence (−) of 0.01 mM VEGF) is listed as 11%; in data set [1] (3 μg/mesh, presence (+) of 0.01 mM VEGF) it was 17%; in data set [1] (17 μg/mesh, absence (−) of 0.01 mM VEGF) it was 12%; in data set [1] (17 μg/mesh, presence (+) of 0.01 mM VEGF), 16%; in data set [1] (33 μg/mesh, absence (−) of 0.01 mM VEGF), 17%; in data set [1] (33 μg/mesh, presence (+) of 0.01 mM VEGF) it was 19%. The “inhibition of angiogenesis, in words” value in data set [1] was “relatively inactive”. In addition, the IC50 in the data set “in vitro [2]”, in the data set “in vitro [3]”, in the data set “in vitro [4]” and in “in vitro [5]” was greater than 100 µM in each case. At chick N-cadherin (NIH3T3, 250 μg/mL, 16-18 hours), the inhibition at 250 µg/mL was -2.5 ± 7.4%. In addition, the “reduction in inhibitory activity on flanking HAV with E-cadherin amino acids” value on chick N-cadherin (Table 8, 250 μg/mL) is reported as “complete”.
Consider `CC(=O)N[C@H]1CSSC[C@@H](C(N)=O)NC(=O)[C@H](C(C)C)NC(=O)CNC(=O)[C@H](Cc2c[nH]cn2)NC1=O` [N-Ac-CHGVC-NH2, reference compound], for which the inhibition at 250 µg/mL at chick N-cadherin (NIH3T3, 250 μg/mL, 16-18 hours) turned out to be 4.8 ± 5.3%.

By IC50 is commonly meant the midpoint of a concentration-inhibition curve. Read a high IC50 as lower potency. What is called inhibition is the drop in the measured response relative to a control, in per cent. As a reminder, the EC50 is the concentration needed to bring the measured effect to its halfway point.
